Reference: ChEMBL document CHEMBL1201862, “PubChem BioAssay data set” (2004)
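Briefly, cells in 96-well plates were exposed to five compound concentrations for 48 h, and endpoints were estimated by linear interpolation. GI50 marks 50% less growth.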 The source made the active and inactive calls. Rule as the data show it: active = GI50 up to about 1.1 µM and inactive = higher.

Tests used:
Assay in all cases: NCI anticancer screen, dose series, 48 h
OVCAR-4 = system: OVCAR-4
SR = system: SR
PC-3 = system: PC-3
SF-268 = system: SF-268
A549 = system: A549
SW-620 = system: SW-620
A498 = system: A498
KM12 = system: KM12
T47D = system: T47D
MDA-MB-231 = system: MDA-MB-231
SK-MEL-2 = system: SK-MEL-2
MDA-N = system: MDA-N
CCRF-CEM = system: CCRF-CEM
M19-MEL = system: M19-MEL
ACHN = system: ACHN
CAKI-1 = system: CAKI-1
HT-29 = system: HT-29
EKVX = system: EKVX
Hs-578T = system: Hs-578T
HOP-92 = system: HOP-92

With `C/C(=N\NC(=S)N1CCCCCC1)c1ccccn1` the GI50 (OVCAR-4) was 0.185 µM (active), the GI50 (SR) was 0.00392 µM (active) and the GI50 (PC-3) was 0.011 µM (active). The GI50 (SF-268) was 0.405 µM (active), the GI50 (A549) was 0.0271 µM (active) and the GI50 (SW-620) was 0.0148 µM (active). For the same compound, the GI50 (A498) was 0.697 µM (active), the GI50 (KM12) was 0.0258 µM (active) and the GI50 (T47D) was 0.00438 µM (active). For the same compound, the GI50 (MDA-MB-231) was 0.0249 µM (active), the GI50 (SK-MEL-2) was 0.132 µM (active) and the GI50 (MDA-N) was 0.42 µM (active). For the same compound, the GI50 (CCRF-CEM) was 0.00383 µM (active), the GI50 (M19-MEL) was 0.0883 µM (active) and the GI50 (ACHN) was 0.00405 µM (active). For the same compound, the GI50 (CAKI-1) was 0.0162 µM (active), the GI50 (HT-29) was < 0.001 µM (active) and the GI50 (EKVX) was 0.0641 µM (active). For the same compound, the GI50 (Hs-578T) was 0.322 µM (active) and the GI50 (HOP-92) was 0.01 µM (active).

For `C=C(CN(C)C)C(=O)c1ccc(C)cc1C`, the GI50 (OVCAR-4) was 9.86 µM (inactive), the GI50 (SR) was 1.25 µM (inactive) and the GI50 (PC-3) was 14.1 µM (inactive). The GI50 (SF-268) was 15.3 µM (inactive), the GI50 (A549) was 32.2 µM (inactive) and the GI50 (SW-620) was 2.74 µM (inactive). For the same compound, the GI50 (A498) was 17.2 µM (inactive), the GI50 (KM12) was 15.9 µM (inactive) and the GI50 (T47D) was 3.31 µM (inactive). The GI50 (MDA-MB-231) was 13.3 µM (inactive), the GI50 (SK-MEL-2) was 18 µM (inactive) and the GI50 (MDA-N) was 4.55 µM (inactive). For the same compound, the GI50 (CCRF-CEM) was 0.574 µM (active), the GI50 (M19-MEL) was 18.7 µM (inactive) and the GI50 (ACHN) was 7.73 µM (inactive). For the same compound, the GI50 (CAKI-1) was 3.09 µM (inactive), the GI50 (HT-29) was 7.66 µM (inactive) and the GI50 (EKVX) was 12.9 µM (inactive). The GI50 (Hs-578T) was 26.1 µM (inactive) and the GI50 (HOP-92) was 3.74 µM (inactive).

With `NC(CCC(=O)NC(CSC(=O)N(O)c1ccccc1)C(=O)NCC(=O)O)C(=O)O` (stereo not given) the GI50 (OVCAR-4) was > 1000 µM (inactive), the GI50 (SR) was > 1000 µM (inactive) and the GI50 (SF-268) was > 1000 µM (inactive). For the same compound, the GI50 (A549) was > 1000 µM (inactive), the GI50 (SW-620) was > 1000 µM (inactive) and the GI50 (A498) was > 1000 µM (inactive). For the same compound, the GI50 (KM12) was > 1000 µM (inactive), the GI50 (SK-MEL-2) was > 1000 µM (inactive) and the GI50 (CCRF-CEM) was > 1000 µM (inactive). For the same compound, the GI50 (M19-MEL) was > 1000 µM (inactive), the GI50 (ACHN) was > 1000 µM (inactive) and the GI50 (CAKI-1) was > 1000 µM (inactive). The GI50 (HT-29) was > 1000 µM (inactive), the GI50 (EKVX) was > 1000 µM (inactive) and the GI50 (HOP-92) was > 1000 µM (inactive).

In the case of `C[N+](C)(C)CC1CCCC1=O` (stereo not given), the GI50 (OVCAR-4) is reported as 0.867 µM (active), the GI50 (SR) is reported as 0.339 µM (active) and the GI50 (PC-3) is reported as 1.41 µM (inactive). For the same compound, the GI50 (SF-268) was 9.64 µM (inactive), the GI50 (A549) was 19 µM (inactive) and the GI50 (SW-620) was 0.383 µM (active). The GI50 (A498) was 13.1 µM (inactive), the GI50 (KM12) was 6.59 µM (inactive) and the GI50 (T47D) was 0.192 µM (active). For the same compound, the GI50 (MDA-MB-231) was 1.39 µM (inactive), the GI50 (SK-MEL-2) was 5.61 µM (inactive) and the GI50 (MDA-N) was 1.69 µM (inactive). The GI50 (CCRF-CEM) was 0.213 µM (active), the GI50 (M19-MEL) was 2.22 µM (inactive) and the GI50 (ACHN) was 1.09 µM (active). The GI50 (CAKI-1) was 2.48 µM (inactive), the GI50 (HT-29) was 1.23 µM (inactive) and the GI50 (EKVX) was 2.16 µM (inactive). For the same compound, the GI50 (Hs-578T) was 3.43 µM (inactive) and the GI50 (HOP-92) was 1.07 µM (active).

For `Cc1cc(C)nc(NS(=O)(=O)c2ccc(Nc3c4ccccc4nc4c(C(=O)N5CCN(CCO)CC5)cccc34)cc2)n1`, the GI50 (OVCAR-4) was > 100 µM (inactive), the GI50 (SR) was > 100 µM (inactive) and the GI50 (SF-268) was > 100 µM (inactive). For the same compound, the GI50 (A549) was > 100 µM (inactive), the GI50 (SW-620) was > 100 µM (inactive) and the GI50 (A498) was > 100 µM (inactive). For the same compound, the GI50 (KM12) was > 100 µM (inactive), the GI50 (SK-MEL-2) was > 100 µM (inactive) and the GI50 (CCRF-CEM) was > 100 µM (inactive). The GI50 (M19-MEL) was > 100 µM (inactive), the GI50 (ACHN) was > 100 µM (inactive) and the GI50 (CAKI-1) was > 100 µM (inactive). For the same compound, the GI50 (HT-29) was > 100 µM (inactive), the GI50 (EKVX) was > 100 µM (inactive) and the GI50 (HOP-92) was > 100 µM (inactive).

In the case of `CC(C)N(C(=O)C12C3C4C1C1C4(C#N)C3C12C(=O)O)C(C)C` (stereo not given), the GI50 (OVCAR-4) is reported as > 100 µM (inactive), the GI50 (SR) is reported as 16.8 µM (inactive) and the GI50 (SF-268) is reported as > 100 µM (inactive). For the same compound, the GI50 (A549) was 97.9 µM (inactive), the GI50 (SW-620) was > 60.3 µM (inactive) and the GI50 (A498) was > 100 µM (inactive). The GI50 (KM12) was > 100 µM (inactive), the GI50 (SK-MEL-2) was > 100 µM (inactive) and the GI50 (CCRF-CEM) was > 48.4 µM (inactive). For the same compound, the GI50 (M19-MEL) was > 100 µM (inactive), the GI50 (ACHN) was > 100 µM (inactive) and the GI50 (CAKI-1) was > 100 µM (inactive). The GI50 (HT-29) was > 100 µM (inactive), the GI50 (EKVX) was > 100 µM (inactive) and the GI50 (HOP-92) was > 100 µM (inactive).
